Assay results: the NIST ThermoML archive (doi:10.1016/j.jct.2015.03.007)

Experiment: xn = mol fraction of the nth substance listed
Settings: Fluid (supercritical or subcritical phases), Vibrating wire viscometry, x2 = 0.5174

C [methane] + O=C=O
Settings	viscosity [mPa·s]
229 K, 14501 kPa	0.073
229.3 K, 12980 kPa	0.0703
229.4 K, 11654 kPa	0.06874
229.5 K, 10963 kPa	0.0679
229.5 K, 13698 kPa	0.0721
229.5 K, 14200 kPa	0.07231
229.6 K, 10168 kPa	0.06646
257.8 K, 19252 kPa	0.05496
257.8 K, 21263 kPa	0.0575
257.9 K, 12165 kPa	0.04274
257.9 K, 14190 kPa	0.047
257.9 K, 18239 kPa	0.0541
257.9 K, 22280 kPa	0.05903
257.9 K, 23289 kPa	0.05979
258 K, 16209 kPa	0.05083
287.7 K, 7818 kPa	0.01711
287.7 K, 8134 kPa	0.01748
287.7 K, 11663 kPa	0.02384
287.7 K, 12567 kPa	0.02598
287.7 K, 13512 kPa	0.02819
287.7 K, 14605 kPa	0.03051
287.7 K, 15897 kPa	0.03311
287.7 K, 17472 kPa	0.03599
287.7 K, 19398 kPa	0.0392
287.7 K, 21895 kPa	0.04255
287.7 K, 25061 kPa	0.04633
287.8 K, 8895 kPa	0.01845
287.8 K, 9137 kPa	0.01889
287.8 K, 9866 kPa	0.02011
287.8 K, 31033 kPa	0.0527
288.1 K, 1438 kPa	0.01349
288.1 K, 1553 kPa	0.0135
288.1 K, 2042 kPa	0.01369
288.1 K, 2553 kPa	0.01388
288.1 K, 3073 kPa	0.01402
288.1 K, 3570 kPa	0.01425
288.1 K, 5123 kPa	0.01498
288.1 K, 5405 kPa	0.01519
288.2 K, 4066 kPa	0.01442
288.2 K, 4594 kPa	0.01468
288.2 K, 6609 kPa	0.01593
288.2 K, 7116 kPa	0.01636
288.2 K, 9140 kPa	0.01892
288.2 K, 11159 kPa	0.02281
288.2 K, 13180 kPa	0.02721
288.2 K, 15201 kPa	0.03146
288.2 K, 19138 kPa	0.03829
288.2 K, 21458 kPa	0.04192
288.2 K, 23984 kPa	0.04512
288.2 K, 25172 kPa	0.04621
288.2 K, 26302 kPa	0.04748
317.8 K, 2056 kPa	0.01479
317.9 K, 1389 kPa	0.01457
317.9 K, 1545 kPa	0.01462
318 K, 2566 kPa	0.015
318 K, 3069 kPa	0.01518
318 K, 4578 kPa	0.01571
318 K, 5085 kPa	0.01587
318 K, 6297 kPa	0.01646
318.1 K, 6520 kPa	0.01648
318.1 K, 7151 kPa	0.01689
318.1 K, 7212 kPa	0.01688
318.1 K, 8226 kPa	0.01751
318.1 K, 9335 kPa	0.0182
318.1 K, 10457 kPa	0.01916
318.1 K, 11460 kPa	0.02013
318.1 K, 12573 kPa	0.02123
318.1 K, 13584 kPa	0.02235
318.1 K, 14713 kPa	0.02377
318.1 K, 15239 kPa	0.02432
318.1 K, 15724 kPa	0.02502
318.1 K, 16254 kPa	0.02562
318.1 K, 17842 kPa	0.02789
318.1 K, 20300 kPa	0.03122
318.1 K, 21518 kPa	0.03236
318.1 K, 22819 kPa	0.03405
318.1 K, 24011 kPa	0.03506
318.1 K, 25249 kPa	0.03636
318.1 K, 26412 kPa	0.03781
318.1 K, 27392 kPa	0.03909
318.1 K, 28884 kPa	0.04047
318.1 K, 30364 kPa	0.04187
318.1 K, 31857 kPa	0.04341
347.7 K, 4516 kPa	0.01665
347.8 K, 2161 kPa	0.01599
347.8 K, 2764 kPa	0.01606
347.8 K, 2964 kPa	0.01612
347.8 K, 3169 kPa	0.01615
347.8 K, 3278 kPa	0.01616
347.8 K, 3485 kPa	0.01631
347.8 K, 4003 kPa	0.01648
347.8 K, 5009 kPa	0.01682
347.8 K, 5509 kPa	0.01696
347.8 K, 5514 kPa	0.01701
347.8 K, 6032 kPa	0.01714
347.8 K, 6512 kPa	0.01731
347.8 K, 7016 kPa	0.01746
347.8 K, 7538 kPa	0.01766
347.8 K, 8039 kPa	0.01795
347.8 K, 8528 kPa	0.01812
347.8 K, 9051 kPa	0.01836
347.8 K, 10090 kPa	0.0189
347.8 K, 10617 kPa	0.01914
347.8 K, 11109 kPa	0.01948
347.8 K, 11596 kPa	0.01976
347.8 K, 12118 kPa	0.02008
347.8 K, 12605 kPa	0.02043
347.8 K, 13204 kPa	0.02102
347.8 K, 13713 kPa	0.02132
347.8 K, 14226 kPa	0.02172
347.8 K, 14732 kPa	0.02205
347.8 K, 16775 kPa	0.02364
347.8 K, 18782 kPa	0.02533
347.8 K, 20792 kPa	0.02732
347.9 K, 1555 kPa	0.01586
347.9 K, 1745 kPa	0.01584
347.9 K, 1956 kPa	0.01592
347.9 K, 2361 kPa	0.01592
347.9 K, 2566 kPa	0.01603
